According to the CheMixHub viscosity set:

Test: xn = mol fraction of the nth substance listed
Conditions: 101 kPa

OCCCOCCCO + NCCN
viscosity [mPa·s]
Conditions	293.15 K	298.15 K	303.15 K	308.15 K	313.15 K	318.15 K
x1 = 0.023	1.77	1.59	1.34	1.21	1.09	0.991
x1 = 0.0474	2.1	1.86	1.55	1.4	1.24	1.13
x1 = 0.0733	2.51	2.19	1.81	1.62	1.44	1.3
x1 = 0.1007	3.07	2.66	2.16	1.92	1.71	1.53
x1 = 0.1299	3.75	3.23	2.59	2.28	2	1.79
x1 = 0.1611	4.7	4.01	3.16	2.76	2.43	–
x1 = 0.1943	5.97	4.99	3.9	3.34	2.88	–
x1 = 0.23	7.72	6.39	4.91	4.16	3.55	–
x1 = 0.2682	10.2	8.28	6.24	5.22	4.37	–
x1 = 0.3094	13.7	10.9	8.09	6.65	5.56	–
x1 = 0.3538	18.7	14.7	10.7	8.62	7	–
x1 = 0.4019	25.9	19.8	14.1	11.1	8.87	–
x1 = 0.4541	36.7	26.7	18.6	14.4	11.2	–
x1 = 0.5111	48.7	35.4	24.1	18.4	14.1	–
x1 = 0.5734	63.9	45.7	30.6	22.9	17.4	–
x1 = 0.6418	79.4	56.4	37.3	27.6	20.7	–
x1 = 0.7174	93.8	66	43.3	31.9	23.7	–
x1 = 0.8013	105	73.2	47.9	35.1	26	–
x1 = 0.8949	112	77.9	50.6	36.8	27.3	–
